In patent US10890577B2, “Treatment methods having reduced drug-related toxicity and methods of identifying the likelihood of patient harm from prescribed medications” (TABULA RASA HEALTHCARE, INC., priority 2016, dated 2021):
Blank lines part the entries; values can stand above or below the compound they belong to.

Experiments:
IKs = IKs (Homo sapiens, UniProt P51787); conditions: cited from earlier work
[1] = in vivo; cited from earlier work
[2] = CYP2D6 inhibited; 100/(100-MP); over the course of multiple doses
CYP2D6 = CYP2D6 (Homo sapiens, UniProt P10635); conditions: in vivo; cited from earlier work
Chain of CYP2D6 (P10635 whole entry): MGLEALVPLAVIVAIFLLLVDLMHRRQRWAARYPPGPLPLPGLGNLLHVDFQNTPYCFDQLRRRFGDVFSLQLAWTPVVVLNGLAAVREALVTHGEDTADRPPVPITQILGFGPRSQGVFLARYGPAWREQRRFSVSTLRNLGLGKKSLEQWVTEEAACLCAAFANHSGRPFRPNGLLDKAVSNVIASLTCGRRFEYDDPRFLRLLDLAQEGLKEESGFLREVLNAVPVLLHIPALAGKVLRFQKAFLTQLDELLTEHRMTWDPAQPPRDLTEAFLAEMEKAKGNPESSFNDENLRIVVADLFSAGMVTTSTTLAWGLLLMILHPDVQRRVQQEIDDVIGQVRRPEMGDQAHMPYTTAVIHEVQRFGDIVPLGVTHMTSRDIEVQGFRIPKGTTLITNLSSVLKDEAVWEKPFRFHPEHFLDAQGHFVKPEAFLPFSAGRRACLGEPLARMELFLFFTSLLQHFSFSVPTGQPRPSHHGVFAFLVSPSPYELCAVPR

IKr = IKr (Homo sapiens, UniProt Q12809); conditions: cited from earlier work
Chain of IKr (Q12809 whole entry): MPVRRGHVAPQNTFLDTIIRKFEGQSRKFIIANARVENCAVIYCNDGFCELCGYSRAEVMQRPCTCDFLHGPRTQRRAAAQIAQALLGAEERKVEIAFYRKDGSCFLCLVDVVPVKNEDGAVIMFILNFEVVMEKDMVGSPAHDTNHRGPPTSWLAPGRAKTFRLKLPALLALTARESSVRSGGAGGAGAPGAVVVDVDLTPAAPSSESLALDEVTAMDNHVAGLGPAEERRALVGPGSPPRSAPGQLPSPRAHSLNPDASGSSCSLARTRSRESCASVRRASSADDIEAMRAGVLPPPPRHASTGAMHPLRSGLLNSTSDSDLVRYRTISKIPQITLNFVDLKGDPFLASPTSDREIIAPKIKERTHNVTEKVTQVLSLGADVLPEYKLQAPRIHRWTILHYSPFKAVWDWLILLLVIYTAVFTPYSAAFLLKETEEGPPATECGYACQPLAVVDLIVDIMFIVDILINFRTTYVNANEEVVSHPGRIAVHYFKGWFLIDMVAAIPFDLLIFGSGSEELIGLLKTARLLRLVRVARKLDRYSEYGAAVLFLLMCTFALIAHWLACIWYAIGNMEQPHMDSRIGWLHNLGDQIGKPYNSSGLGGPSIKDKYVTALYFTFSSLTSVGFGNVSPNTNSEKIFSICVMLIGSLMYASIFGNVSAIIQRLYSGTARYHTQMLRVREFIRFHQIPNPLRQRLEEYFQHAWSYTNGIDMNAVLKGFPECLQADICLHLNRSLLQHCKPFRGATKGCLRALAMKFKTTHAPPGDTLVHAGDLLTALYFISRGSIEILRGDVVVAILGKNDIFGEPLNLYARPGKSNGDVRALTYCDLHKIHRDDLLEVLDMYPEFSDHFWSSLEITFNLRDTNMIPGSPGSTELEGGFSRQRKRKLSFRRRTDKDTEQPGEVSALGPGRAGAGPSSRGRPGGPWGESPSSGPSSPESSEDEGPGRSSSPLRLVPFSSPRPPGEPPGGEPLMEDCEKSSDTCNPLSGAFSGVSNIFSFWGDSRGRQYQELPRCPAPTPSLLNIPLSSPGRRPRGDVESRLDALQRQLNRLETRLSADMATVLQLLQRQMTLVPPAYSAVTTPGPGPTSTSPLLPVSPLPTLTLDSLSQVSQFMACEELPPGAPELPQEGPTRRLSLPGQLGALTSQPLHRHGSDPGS

QTc interval = conditions: positive control; cited from earlier work
[3] = value inserted in K1 equation as (100-97)/100; cited from earlier work
[4] = value inserted in K1 equation; read-out: Cmax of the drug at a test dose; cited from earlier work
L-type Ca^2+ currents = L-type Ca^2+ currents (Homo sapiens, UniProt Q13936); conditions: cited from earlier work

SMILES: CC1Cc2ccccc2N1NC(=O)c1ccc(Cl)c(S(N)(=O)=O)c1 (centres unmarked) [Indapamide]
- block of IKs (IKs): inhibit IKs

- increase in concentration [2]: ~4 fold
SMILES: Cc1cccc(C)c1OCC(C)N (centres unmarked) [mexiletine]
- F (bioavailability) [1]: 95%
- cleared by CYP2D6 (CYP2D6): 75%

SMILES: Nc1nc(N)c2nc(-c3ccccc3)c(N)nc2n1 [triamterene]
- block of IKr (IKr): significant block
- block of IKs (IKs): significant block

SMILES: COc1c(N2C[C@@H]3CCCN[C@@H]3C2)c(F)cc2c(=O)c(C(=O)O)cn(C3CC3)c12 [moxifloxacin]
- QT prolongation added to the QTc interval (QTc interval): 7-10 milliseconds

SMILES: CC(C)(C)c1ccc(C(O)CCCN2CCC(C(O)(c3ccccc3)c3ccccc3)CC2)cc1 (centres unmarked) [terfenadine]
- Protein binding of the drug [3]: 97%
- Cmax [4]: 3.18 nM

SMILES: COc1ccccc1OCC(O)CN1CCN(CC(=O)Nc2c(C)cccc2C)CC1 (centres unmarked) [Ranolazine]
- block of IKr (IKr): blocks IKr

SMILES: CCCCc1oc2ccccc2c1C(=O)c1cc(I)c(OCCN(CC)CC)c(I)c1 [Amiodarone]
- block of L-type Ca2+ currents (L-type Ca^2+ currents): blocks L-type Ca^2+ currents
